Results taken from ChEMBL document CHEMBL1201862, “PubChem BioAssay data set” (2004).
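96-well plates; 48 h exposure; 5 concentrations. Endpoints by linear interpolation between flanking doses. Not reached: highest tested concentration assigned. GI50: concentration for 50% inhibition of growth.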 Active and inactive are the calls of the source. Rule as the data show it: active = GI50 up to about 1.1 µM and inactive = higher.

Columns and labels:
Assay in all cases: NCI anticancer screen, dose series, 48 h
ACHN = tested on: ACHN
CCRF-CEM = tested on: CCRF-CEM
HCC 2998 = tested on: HCC 2998
MDA-MB-435 = tested on: MDA-MB-435
HCT-116 = tested on: HCT-116
K562 = tested on: K562
OVCAR-8 = tested on: OVCAR-8
MDA-N = tested on: MDA-N
MCF7 = tested on: MCF7
SF-539 = tested on: SF-539
M14 = tested on: M14
EKVX = tested on: EKVX
OVCAR-3 = tested on: OVCAR-3
SNB-75 = tested on: SNB-75
SK-MEL-5 = tested on: SK-MEL-5
SF-268 = tested on: SF-268
SW-620 = tested on: SW-620
UACC-257 = tested on: UACC-257
T47D = tested on: T47D
PC-3 = tested on: PC-3
COLO 205 = tested on: COLO 205
SK-MEL-28 = tested on: SK-MEL-28
SNB-19 = tested on: SNB-19
SF-295 = tested on: SF-295
BT-549 = tested on: BT-549
OVCAR-5 = tested on: OVCAR-5
NCI-H23 = tested on: NCI-H23
LOX IMVI = tested on: LOX IMVI
NCI/ADR-RES = tested on: NCI/ADR-RES
RXF 393 = tested on: RXF 393
SK-MEL-2 = tested on: SK-MEL-2
A549 = tested on: A549
KM12 = tested on: KM12
IGROV-1 = tested on: IGROV-1
A498 = tested on: A498
786-0 = tested on: 786-0
HCT-15 = tested on: HCT-15
HOP-62 = tested on: HOP-62
TK-10 = tested on: TK-10
U-251 = tested on: U-251
NCI-H522 = tested on: NCI-H522
NCI-H226 = tested on: NCI-H226
NCI-H460 = tested on: NCI-H460
CAKI-1 = tested on: CAKI-1
MDA-MB-231 = tested on: MDA-MB-231
MOLT-4 = tested on: MOLT-4
UO-31 = tested on: UO-31
Malme-3M = tested on: Malme-3M
OVCAR-4 = tested on: OVCAR-4
SN12C = tested on: SN12C
SK-OV-3 = tested on: SK-OV-3
DU-145 = tested on: DU-145
RPMI-8226 = tested on: RPMI-8226
HOP-92 = tested on: HOP-92
UACC-62 = tested on: UACC-62
SR = tested on: SR
HL-60 = tested on: HL-60
Hs-578T = tested on: Hs-578T
HT-29 = tested on: HT-29

`COP(=O)(CP(=O)(OC)OCCC(C)CCC=C(C)C)OC` (configuration not stated) was tested, and the GI50 (ACHN) was > 100 µM (inactive), the GI50 (CCRF-CEM) was > 100 µM (inactive) and the GI50 (HCC 2998) was > 100 µM (inactive). For the same molecule, the GI50 (MDA-MB-435) was > 100 µM (inactive), the GI50 (HCT-116) was > 100 µM (inactive) and the GI50 (K562) was > 100 µM (inactive). For the same molecule, the GI50 (OVCAR-8) was > 100 µM (inactive), the GI50 (MDA-N) was > 100 µM (inactive) and the GI50 (MCF7) was > 100 µM (inactive). For the same molecule, the GI50 (SF-539) was > 100 µM (inactive), the GI50 (M14) was > 100 µM (inactive) and the GI50 (EKVX) was > 100 µM (inactive). For the same molecule, the GI50 (OVCAR-3) was > 100 µM (inactive), the GI50 (SNB-75) was > 100 µM (inactive) and the GI50 (SK-MEL-5) was > 100 µM (inactive). The GI50 (SF-268) was > 100 µM (inactive), the GI50 (SW-620) was > 100 µM (inactive) and the GI50 (UACC-257) was > 100 µM (inactive). For the same molecule, the GI50 (T47D) was > 100 µM (inactive), the GI50 (PC-3) was > 100 µM (inactive) and the GI50 (COLO 205) was > 100 µM (inactive). For the same molecule, the GI50 (SK-MEL-28) was > 100 µM (inactive), the GI50 (SNB-19) was > 100 µM (inactive) and the GI50 (SF-295) was > 100 µM (inactive). For the same molecule, the GI50 (BT-549) was > 100 µM (inactive), the GI50 (OVCAR-5) was > 100 µM (inactive) and the GI50 (NCI-H23) was > 100 µM (inactive). For the same molecule, the GI50 (LOX IMVI) was > 100 µM (inactive), the GI50 (NCI/ADR-RES) was > 100 µM (inactive) and the GI50 (RXF 393) was > 100 µM (inactive). The GI50 (SK-MEL-2) was > 100 µM (inactive), the GI50 (A549) was > 100 µM (inactive) and the GI50 (KM12) was > 100 µM (inactive). The GI50 (IGROV-1) was > 100 µM (inactive), the GI50 (A498) was > 100 µM (inactive) and the GI50 (786-0) was > 100 µM (inactive). For the same molecule, the GI50 (HCT-15) was greater than 100 µM, the GI50 (HOP-62) was 69.7 µM (inactive) and the GI50 (TK-10) was > 100 µM (inactive). The GI50 (U-251) was 26.7 µM (inactive), the GI50 (NCI-H522) was > 100 µM (inactive) and the GI50 (NCI-H226) was > 100 µM (inactive). For the same molecule, the GI50 (NCI-H460) was > 100 µM (inactive), the GI50 (CAKI-1) was > 100 µM (inactive) and the GI50 (MDA-MB-231) was 19.1 µM (inactive). The GI50 (MOLT-4) was > 100 µM (inactive), the GI50 (UO-31) was > 100 µM (inactive) and the GI50 (Malme-3M) was > 100 µM (inactive). For the same molecule, the GI50 (OVCAR-4) was > 100 µM (inactive), the GI50 (SN12C) was > 100 µM (inactive) and the GI50 (SK-OV-3) was > 100 µM (inactive).

For `CSc1ccc2c(cc1=O)[C@@H](NC(=O)c1ccc(N)cc1)CCc1cc(O)c(O)c(O)c1-2`, the GI50 (ACHN) was 21.2 µM (inactive), the GI50 (HCC 2998) was 14.5 µM (inactive) and the GI50 (MDA-MB-435) was 7.85 µM (inactive). For the same molecule, the GI50 (K562) was 9.66 µM (inactive), the GI50 (OVCAR-8) was 22 µM (inactive) and the GI50 (SF-539) was 3.85 µM (inactive). The GI50 (DU-145) was 49.1 µM (inactive), the GI50 (EKVX) was 30.1 µM (inactive) and the GI50 (SF-268) was 13.6 µM (inactive). The GI50 (UACC-257) was 18.3 µM (inactive), the GI50 (RPMI-8226) was 22.3 µM (inactive) and the GI50 (T47D) was 66.1 µM (inactive). The GI50 (SNB-19) was 25.1 µM (inactive), the GI50 (SF-295) was 15.7 µM (inactive) and the GI50 (BT-549) was 16 µM (inactive). The GI50 (OVCAR-5) was 23.4 µM (inactive), the GI50 (NCI/ADR-RES) was 28.5 µM (inactive) and the GI50 (A549) was 23.6 µM (inactive). For the same molecule, the GI50 (IGROV-1) was 25 µM (inactive), the GI50 (A498) was 46.2 µM (inactive) and the GI50 (786-0) was 16.4 µM (inactive). For the same molecule, the GI50 (HCT-15) was 17.9 µM, the GI50 (HOP-62) was 15.1 µM (inactive) and the GI50 (U-251) was 25.4 µM (inactive). For the same molecule, the GI50 (NCI-H522) was 7.67 µM (inactive), the GI50 (NCI-H460) was 12 µM (inactive) and the GI50 (MOLT-4) was 22.6 µM (inactive). The GI50 (UO-31) was 26 µM (inactive), the GI50 (OVCAR-4) was 22 µM (inactive) and the GI50 (SN12C) was 27.9 µM (inactive). For the same molecule, the GI50 (HOP-92) was 41.4 µM (inactive) and the GI50 (SK-OV-3) was > 100 µM (inactive).

For `NC(=O)c1ncn2c1CNC(=O)C2`, the GI50 (UACC-62) was > 100 µM (inactive), the GI50 (ACHN) was > 100 µM (inactive) and the GI50 (CCRF-CEM) was > 100 µM (inactive). For the same molecule, the GI50 (HCC 2998) was > 100 µM (inactive), the GI50 (MDA-MB-435) was > 100 µM (inactive) and the GI50 (K562) was > 100 µM (inactive). For the same molecule, the GI50 (OVCAR-8) was > 100 µM (inactive), the GI50 (MCF7) was > 100 µM (inactive) and the GI50 (SF-539) was > 100 µM (inactive). For the same molecule, the GI50 (M14) was > 100 µM (inactive), the GI50 (DU-145) was > 100 µM (inactive) and the GI50 (EKVX) was > 100 µM (inactive). The GI50 (OVCAR-3) was > 100 µM (inactive), the GI50 (SNB-75) was > 100 µM (inactive) and the GI50 (SK-MEL-5) was > 100 µM (inactive). For the same molecule, the GI50 (SF-268) was > 100 µM (inactive), the GI50 (SW-620) was > 100 µM (inactive) and the GI50 (UACC-257) was > 100 µM (inactive). The GI50 (T47D) was > 100 µM (inactive), the GI50 (PC-3) was > 100 µM (inactive) and the GI50 (SR) was > 100 µM (inactive). The GI50 (COLO 205) was > 100 µM (inactive), the GI50 (HL-60) was > 100 µM (inactive) and the GI50 (SK-MEL-28) was > 100 µM (inactive). For the same molecule, the GI50 (SNB-19) was > 100 µM (inactive), the GI50 (SF-295) was > 100 µM (inactive) and the GI50 (BT-549) was > 100 µM (inactive). The GI50 (OVCAR-5) was > 100 µM (inactive), the GI50 (NCI-H23) was > 100 µM (inactive) and the GI50 (NCI/ADR-RES) was > 100 µM (inactive). For the same molecule, the GI50 (RXF 393) was > 100 µM (inactive), the GI50 (SK-MEL-2) was > 100 µM (inactive) and the GI50 (A549) was > 100 µM (inactive). For the same molecule, the GI50 (KM12) was > 100 µM (inactive), the GI50 (IGROV-1) was > 100 µM (inactive) and the GI50 (A498) was > 100 µM (inactive). For the same molecule, the GI50 (HCT-15) was greater than 100 µM, the GI50 (HOP-62) was > 100 µM (inactive) and the GI50 (TK-10) was > 100 µM (inactive). The GI50 (U-251) was > 100 µM (inactive), the GI50 (NCI-H522) was > 100 µM (inactive) and the GI50 (Hs-578T) was > 100 µM (inactive). The GI50 (NCI-H226) was > 100 µM (inactive), the GI50 (NCI-H460) was > 100 µM (inactive) and the GI50 (CAKI-1) was > 100 µM (inactive). For the same molecule, the GI50 (MDA-MB-231) was > 100 µM (inactive), the GI50 (HT-29) was > 100 µM (inactive) and the GI50 (MOLT-4) was > 100 µM (inactive). The GI50 (UO-31) was > 100 µM (inactive), the GI50 (Malme-3M) was > 100 µM (inactive) and the GI50 (OVCAR-4) was > 100 µM (inactive). For the same molecule, the GI50 (SN12C) was > 100 µM (inactive), the GI50 (HOP-92) was > 100 µM (inactive) and the GI50 (SK-OV-3) was > 100 µM (inactive).
